We go through one molecule from article PMC12844124, “Synthesis and Study of Substituted Chalcones Combined with Fluoroazobenzenes—New Photoswitches for Application in Biological Systems” (Molecules, 2026).

The IC50 is the midpoint of a concentration-inhibition curve. Low readings indicate higher potency, high ones lower potency.

Each structure is given as a SMILES string.

A short description of data set [1]: Photostationary state (PSS) composition by 19F NMR. To be noted: irradiation 525 nm, DMSO-d6. The data set is classed as physicochemical. From the text:
Azo compounds have been applied in various fields due to their ability to undergo structural changes, with one of the most interesting applications being the direct conversion of light into mechanical energy. However, azobenzenes generally face two main limitations that hinder their practical use in biological and materials sciences. The first is the need for UV light to induce the E→Z isomerization through π→π* excitation, which can potentially interfere with and damage the surrounding environment. The second limitation is the typically incomplete reverse Z→E photoisomerization, which is induced by irradiation in the visible region. In this region, the n→π* bands of the E and Z isomers largely overlap, making it difficult to achieve E-rich photostationary states (PSSs) after back-switching. These limitations can be overcome by modifying azobenzene in such a way that the n→π* bands of the E and Z isomers are sufficiently separated. If the separation is large enough, the two n→π* bands can be distinct, allowing visible light to selectively isomerize both isomers with high to complete E/Z photoconversions. We are looking for switches that operate within the visible light range of 380–750 nm, which is harmless. Fluorine-substituted azobenzenes are well-suited for designing visible-light-responsive systems, offering stable and bidirectional photoconversions along with tissue-compatible properties. We confirmed that the compounds we synthesized successfully dock with tubulin. In the next step, we tested whether the added azo compound would meet our expectations as a visible light switch. For this purpose, we used NMR spectroscopy. We measured ^19F spectra of (17a–17c, 17e–17g, and 17i–17l) at nine wavelengths from 390 nm to 610 nm to check which wavelengths produce the most Z isomer after exposure (see Section S4.2 in Supplementary Materials). We selected DMSO as the solvent due to its ability to dissolve both polar and nonpolar molecules, which is essential for the analytical methods employed in this study. Its intermediate polarity also makes it a good surrogate for both organic and aqueous solvents. Additionally, DMSO is commonly used for preparing stock solutions, which are then illuminated and diluted into aqueous systems for assessing biological activity. […]
Figure 2 (a) Photostationary state (PSS) compositions for chalcones (17a–17c, 17e–17g, and 17i–17l) determined by ^19F NMR analysis (c ≈ 100 mM in DMSO-d6), presented in a bar chart; (b) representative multiple photoswitching rounds of 60 µM of (17j) in DMSO by pulsed green (525 nm) and blue (430 nm) light illumination. The photochemical stability of the drug is analyzed via repeated cycles of irradiation (software: Microsoft Excel).

A further data set deals with BJ fibroblasts. The experiment in a line: MTS cell proliferation assay, BJ fibroblasts. In kind it is cell-based, human. To be noted: for IC50: Homo sapiens, Fibroblast. How it is done:
Human BJ fibroblasts (American Type Cell Culture Collection, Manassas, VA, USA, CRL-2522) and human prostate cancer cell line PC-3 (American Type Cell Culture Collection, Manassas, VA, USA, CRL-1435), derived from bone metastases, were routinely grown in […]) Medium (ThermoFisher, Waltham, MA, USA, 21127-022) and supplemented with heat-inactivated 10% Fetal Bovine Serum (Biowest, France, […]) and 1% antibiotic solution (Biowest, Nuaillé, France, L0022), in a humidified 5% CO2 atmosphere at 37 °C. Cells were used between 3 and 20 passages. The 96-well plates were prepared by seeding 5 × 10^3 or 2.5 × 10^3 cells per well, for 24 and 48 h treatments, respectively, with at least five technical and two biological repeats. […] The cells were treated with either the Z conformer of 17j, with continuous illumination with 525 nm light, or the E conformer. The Z conformer was prepared by illuminating its DMSO solution with 525 nm light overnight. The cell proliferation was analyzed with CellTiter Aqueous One Solution Cell Proliferation MTS (3-(4,5-dimethylthiazol-2-yl)-5-(3-carboxymethoxyphenyl)-2-(4-sulfophenyl)-2H-tetrazolium) Assay (Promega, Madison, WI, USA, G5430) after 24 or 48 h of treatment. The absorbance was measured at 490 and 670 nm with FLUOStar Omega plate reader (BMG LABTECH GmbH, Ortenberg, Germany). The statistical analysis was performed within R 4.5.1 project. […] The log-logistic four parametric model (4PL), with the lower limit boundary set to 0 and group fitting, was used, as available in the drc package, to fit cell proliferation data. The residuals were checked for normality with QQ and density plots and considered as sufficiently normally distributed. The assessment metrics for model goodness of fit were performed with functions available in the drc package and with custom ones. When appropriate, the delta method was applied to obtain error of central tendency. To assess the goodness of fit for each of the biological replicates, deviance R^2 (DR^2) was calculated and assessed. […] The DR^2 was calculated according to the following Equation: 1 - (Dres/Dnull), where Dres-residual deviance and Dnull-null deviance (deviance of the model with mean as a predicted value). The null hypothesis was assessed with the two-way ANOVA with Tukey's post hoc test for multiple comparisons or with the two-way t-test when only two groups were compared. The differences in the cell cycle percentages were assessed with the two-way ANOVA with Tukey's post hoc test.
Background: Tetrazolium dyes change colour on reduction, which living cells bring about.

Turning to `COc1cc(/C=C/C(=O)c2cccc(/N=N/c3c(F)cccc3F)c2)cc(OC)c1` [Compound 17j], in data set [1], the “share of the Z configuration (PSS)” value was 73.2%. Moreover, the “growth inhibition (normalized asymptote)” value with BJ fibroblasts (E conformer, 48 h) is 5.3 ± 1.2%; in the data set on BJ fibroblasts (Z conformer, 24 h), 18.7 ± 9.7%; in the data set with BJ fibroblasts (Z conformer, 48 h), 13.3 ± 6.1%. For the same molecule, the IC50 in the data set with BJ fibroblasts (24 h, E conformer, 24 h treatment) was found to be 6.59 ± 0.38 µM; in the data set with BJ fibroblasts (24 h, Z conformer, 24 h treatment), 10.1 ± 1.4 µM; in the data set with BJ fibroblasts (48 h, E conformer, 48 h treatment) it was 2.66 ± 0.15 µM; with BJ fibroblasts (48 h, Z conformer, 48 h treatment) it was 4.02 ± 0.39 µM.
